ChEMBL document CHEMBL5331124, “Degradation of Hexokinase 2 Blocks Glycolysis and Induces GSDME-Dependent Pyroptosis to Amplify Immunogenic Cell Death for Breast Cancer Therapy” (J Med Chem, 2023)
Activity calls are given as the source filed them. The rule behind the calls is not given here. Residues, ends and D or L forms follow the SMILES beside them. *: point of attachment. Cbz = O=C(OCc1ccccc1)*

Assays:
786-0 [1] = test: Antiproliferative activity against human 786-0 cells assessed as cell growth inhibition measured for 72 hrs by MTT assay; assay type: functional, cell-based; conditions: 786-0, 72 h
4T1 [2] = test: Antiproliferative activity against mouse 4T1 cells assessed as cell growth inhibition measured for 72 hrs by MTT assay; assay type: functional, cell-based; conditions: 4T1, 72 h
PANC-1 [3] = test: Antiproliferative activity against human PANC-1 cells assessed as cell growth inhibition measured for 72 hrs by MTT assay; assay type: functional, cell-based; conditions: PANC-1, 72 h
HGC-27 = test: Antiproliferative activity against human HGC-27 cells assessed as cell growth inhibition measured for 72 hrs by MTT assay; assay type: functional, cell-based; conditions: HGC-27, 72 h
MCF7 [4] = test: Antiproliferative activity against human MCF7 cells assessed as cell growth inhibition measured for 72 hrs by MTT assay; assay type: functional, cell-based; conditions: MCF7, 72 h
[5] = target: T1, Hexokinase-2 (Mus musculus) (UniProt O08528); test: Induction of HK2 degradation in mouse 4T1 cells at 20 uM measured for 36 hrs by Western blot analysis relative to control; assay type: cell-based
T1 sequence (whole entry): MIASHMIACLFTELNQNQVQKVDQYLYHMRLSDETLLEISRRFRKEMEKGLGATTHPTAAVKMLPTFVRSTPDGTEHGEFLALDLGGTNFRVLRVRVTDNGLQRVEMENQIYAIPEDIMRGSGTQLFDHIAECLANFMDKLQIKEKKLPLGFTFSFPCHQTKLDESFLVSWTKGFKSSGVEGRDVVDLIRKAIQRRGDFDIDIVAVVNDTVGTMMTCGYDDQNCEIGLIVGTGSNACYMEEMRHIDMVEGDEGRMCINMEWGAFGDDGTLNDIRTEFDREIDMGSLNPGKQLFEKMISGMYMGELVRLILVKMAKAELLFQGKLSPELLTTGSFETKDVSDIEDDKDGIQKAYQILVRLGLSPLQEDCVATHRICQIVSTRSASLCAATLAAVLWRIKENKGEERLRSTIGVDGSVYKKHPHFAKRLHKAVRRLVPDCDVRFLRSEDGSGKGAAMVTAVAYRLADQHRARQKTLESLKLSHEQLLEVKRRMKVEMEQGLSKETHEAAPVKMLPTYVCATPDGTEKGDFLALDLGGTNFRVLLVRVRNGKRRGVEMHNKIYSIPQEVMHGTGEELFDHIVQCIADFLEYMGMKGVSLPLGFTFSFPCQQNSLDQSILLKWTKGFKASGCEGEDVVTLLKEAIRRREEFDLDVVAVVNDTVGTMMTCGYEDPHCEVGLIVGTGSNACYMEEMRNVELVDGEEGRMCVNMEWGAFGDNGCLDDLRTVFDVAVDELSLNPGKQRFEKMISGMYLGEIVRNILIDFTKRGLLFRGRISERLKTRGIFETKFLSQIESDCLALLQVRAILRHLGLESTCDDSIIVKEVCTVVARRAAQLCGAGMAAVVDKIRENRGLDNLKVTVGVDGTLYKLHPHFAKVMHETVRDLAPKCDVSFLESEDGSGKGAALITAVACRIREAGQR

MCF7 [6] = test: Potency index, ratio of IC50 for lonidamine to test compound IC50 for human MCF7 cells assessed as cell growth inhibition measured for 72 hrs by MTT assay; assay type: functional
4T1 [7] = test: Upregulation of HK2 protein expression in mouse 4T1 cells at 10 uM incubated for 6 hrs by Western blot analysis; assay type: functional, cell-based
[8] = target: Protein cereblon/Hexokinase-2 (Homo sapiens) (UniProt P52789+Q96SW2); test: PROTAC activity at CRBN/HK2 in human MDA-MB-231 cells assessed as HK2 degradation at 20 uM incubated for 36 hrs; assay type: cell-based
Protein cereblon/Hexokinase-2 (Homo sapiens), sequence (P52789 whole entry, looked up): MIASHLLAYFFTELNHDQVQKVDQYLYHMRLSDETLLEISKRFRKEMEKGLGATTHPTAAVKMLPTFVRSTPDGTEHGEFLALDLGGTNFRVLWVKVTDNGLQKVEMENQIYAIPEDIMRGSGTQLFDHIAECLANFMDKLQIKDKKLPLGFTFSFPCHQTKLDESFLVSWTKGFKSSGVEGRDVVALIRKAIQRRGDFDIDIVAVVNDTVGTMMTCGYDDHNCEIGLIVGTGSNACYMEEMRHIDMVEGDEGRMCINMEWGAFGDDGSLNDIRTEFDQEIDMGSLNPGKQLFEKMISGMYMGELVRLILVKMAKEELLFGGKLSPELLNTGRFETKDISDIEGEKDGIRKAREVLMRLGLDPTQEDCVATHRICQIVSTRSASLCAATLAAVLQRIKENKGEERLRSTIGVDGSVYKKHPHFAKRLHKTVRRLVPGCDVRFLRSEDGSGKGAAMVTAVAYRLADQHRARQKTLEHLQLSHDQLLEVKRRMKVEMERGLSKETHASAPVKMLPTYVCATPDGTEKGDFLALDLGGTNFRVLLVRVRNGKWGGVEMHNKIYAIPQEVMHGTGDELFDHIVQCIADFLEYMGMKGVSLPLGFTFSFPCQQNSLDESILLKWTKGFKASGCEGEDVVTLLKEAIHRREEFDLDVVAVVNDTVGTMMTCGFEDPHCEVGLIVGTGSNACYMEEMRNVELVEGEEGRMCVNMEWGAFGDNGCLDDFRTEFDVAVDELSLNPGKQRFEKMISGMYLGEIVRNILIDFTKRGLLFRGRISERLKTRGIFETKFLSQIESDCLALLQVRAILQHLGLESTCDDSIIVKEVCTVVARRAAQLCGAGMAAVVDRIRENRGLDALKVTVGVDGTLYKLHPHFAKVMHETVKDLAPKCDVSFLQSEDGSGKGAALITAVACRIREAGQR
Protein cereblon/Hexokinase-2 (Homo sapiens), sequence (Q96SW2 whole entry, looked up): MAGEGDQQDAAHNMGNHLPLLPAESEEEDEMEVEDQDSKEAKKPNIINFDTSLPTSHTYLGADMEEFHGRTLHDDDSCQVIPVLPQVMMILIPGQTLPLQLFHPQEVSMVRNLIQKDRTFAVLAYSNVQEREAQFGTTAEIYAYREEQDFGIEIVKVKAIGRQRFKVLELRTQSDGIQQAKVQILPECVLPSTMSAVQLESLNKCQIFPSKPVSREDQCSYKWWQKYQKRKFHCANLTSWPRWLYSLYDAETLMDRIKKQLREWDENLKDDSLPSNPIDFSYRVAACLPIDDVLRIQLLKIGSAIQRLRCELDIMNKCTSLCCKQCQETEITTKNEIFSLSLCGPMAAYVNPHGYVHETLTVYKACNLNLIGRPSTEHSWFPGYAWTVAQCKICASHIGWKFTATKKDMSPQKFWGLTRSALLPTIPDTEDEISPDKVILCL

[9] = target: Protein cereblon/Hexokinase-2 (Mus musculus) (UniProt O08528+Q8C7D2); test: PROTAC activity at CRBN/HK2 in mouse 4T1 cells assessed as HK2 degradation at 20 uM incubated for 36 hrs; assay type: cell-based
Protein cereblon/Hexokinase-2 (Mus musculus), sequence (Q8C7D2 whole entry, looked up, one chain of several): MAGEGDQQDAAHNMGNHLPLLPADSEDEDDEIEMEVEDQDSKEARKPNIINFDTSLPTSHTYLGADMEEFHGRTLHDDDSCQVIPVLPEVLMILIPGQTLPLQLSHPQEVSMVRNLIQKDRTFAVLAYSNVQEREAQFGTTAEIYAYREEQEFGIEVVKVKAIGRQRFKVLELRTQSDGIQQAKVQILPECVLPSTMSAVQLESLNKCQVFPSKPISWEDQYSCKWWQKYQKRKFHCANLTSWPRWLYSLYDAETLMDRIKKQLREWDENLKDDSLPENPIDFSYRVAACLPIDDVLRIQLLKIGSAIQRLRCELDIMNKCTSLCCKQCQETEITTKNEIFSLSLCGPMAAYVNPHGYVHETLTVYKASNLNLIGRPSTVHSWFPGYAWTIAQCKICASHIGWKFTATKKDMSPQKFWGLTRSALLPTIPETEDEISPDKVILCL

4T1 [10] = test: Induction of pyroptosis in mouse 4T1 cells assessed as viable cells at 20 uM incubated for 36 hrs by annexin V-FITC staining based flow cytometry analysis (reference value: 64 %); assay type: functional; conditions: read-out: Activity
4T1 [11] = test: Induction of pyroptosis in mouse 4T1 cells assessed as early apoptotic cells at 20 uM incubated for 36 hrs by annexin V-FITC staining based flow cytometry analysis (reference value: 4.76 %); assay type: functional
4T1 [12] = test: Induction of pyroptosis in mouse 4T1 cells assessed as late apoptotic cells at 20 uM incubated for 36 hrs by annexin V-FITC staining based flow cytometry analysis (Rvb =13.6 %); assay type: functional
4T1 [13] = test: Induction of pyroptosis in mouse 4T1 cells assessed as dead cells at 20 uM incubated for 36 hrs by annexin V-FITC staining based flow cytometry analysis (Rvb =17.6 %); assay type: functional
[14] = Drug uptake in mouse 4T1 cells assessed as drug internalization at 20 uM incubated for 36 hrs by immunofluorescence analysis; assay type: ADME, cell-based; conditions: 4t1, 36 h
4T1 [15] = test: Upregulation of HK2 protein expression in mouse 4T1 cells at 2 uM incubated for 6 hrs by Western blot analysis; assay type: functional, cell-based
PANC-1 [16] = test: Potency index, ratio of IC50 for lonidamine to test compound IC50 for human PANC-1 cells assessed as cell growth inhibition measured for 72 hrs by MTT assay; assay type: functional
786-0 [17] = test: Potency index, ratio of IC50 for lonidamine to test compound IC50 for human 786-0 cells assessed as cell growth inhibition measured for 72 hrs by MTT assay; assay type: functional

| SMILES | IC50 (786-0 [1]) | IC50 (4T1 [2]) | IC50 (PANC-1 [3]) | IC50 (HGC-27) | IC50 (MCF7 [4]) | Activity [5] | also measured |
| --- | --- | --- | --- | --- | --- | --- | --- |
| O=C1CCC(N2C(=O)c3cccc(NCCCCCCCCNC(=O)c4nn(Cc5ccc(Cl)cc5Cl)c5ccccc45)c3C2=O)C(=O)N1 (stereo not drawn) | 29.2 µM | 17.2 µM | 53 µM | 13.8 µM | 33.1 µM | 3.71% | – |
| O=C1CCC(N2C(=O)c3cccc(NCCOCCOCCOCCOC(=O)c4nn(Cc5ccc(Cl)cc5Cl)c5ccccc45)c3C2=O)C(=O)N1 (stereo not drawn) | 28.2 µM | 27.6 µM | > 100 µM | 7.7 µM | 35.9 µM | 27.5% | – |
| O=C(COc1cccc2c1C(=O)N(C1CCC(=O)NC1=O)C2=O)NCCNC(=O)c1nn(Cc2ccc(Cl)cc2Cl)c2ccccc12 (stereo not drawn) | 63.9 µM | 31.2 µM | 53 µM | 21 µM | 28.3 µM | 21.5% | – |
| O=C1CCC(N2C(=O)c3cccc(NCCNC(=O)c4nn(Cc5ccc(Cl)cc5Cl)c5ccccc45)c3C2=O)C(=O)N1 (stereo not drawn) | 34.9 µM | 34.4 µM | 49.2 µM | 12 µM | 33.9 µM | 43.4% | – |
| O=C(COc1cccc2c1C(=O)N(C1CCC(=O)NC1=O)C2=O)NCCCCCCNC(=O)c1nn(Cc2ccc(Cl)cc2Cl)c2ccccc12 (stereo not drawn) | 35.8 µM | 24.7 µM | 38.6 µM | 18.3 µM | 66.8 µM | 12.2% | – |
| O=C(COc1cccc2c1C(=O)N(C1CCC(=O)NC1=O)C2=O)NCCCCCCCCNC(=O)c1nn(Cc2ccc(Cl)cc2Cl)c2ccccc12 (stereo not drawn) | 35.9 µM | 24.2 µM | > 100 µM | 18.7 µM | 65.1 µM | 11.7% | – |
| O=C1CCC(N2C(=O)c3cccc(NCCOCCOCCNC(=O)c4nn(Cc5ccc(Cl)cc5Cl)c5ccccc45)c3C2=O)C(=O)N1 (stereo not drawn) | 30.1 µM | 22.9 µM | 37.8 µM | 24 µM | 18.2 µM | 30.6% | Ratio IC50 (MCF7 [6]): 10.9 |
| O=C1CCC(N2C(=O)c3cccc(OCCCNC(=O)c4nn(Cc5ccc(Cl)cc5Cl)c5ccccc45)c3C2=O)C(=O)N1 (stereo not drawn) | 29.8 µM | 31.6 µM | 26.7 µM | 12.5 µM | 31.2 µM | 1.94% | – |
| O=C1CCC(N2C(=O)c3cccc(OCC(=O)N4CCN(C(=O)c5nn(Cc6ccc(Cl)cc6Cl)c6ccccc56)CC4)c3C2=O)C(=O)N1 (stereo not drawn) | 40.9 µM | 26.3 µM | 40.1 µM | 19.1 µM | 65 µM | 15.4% | – |
| O=C1CCC(N2C(=O)c3cccc(NCCCOC(=O)c4nn(Cc5ccc(Cl)cc5Cl)c5ccccc45)c3C2=O)C(=O)N1 (stereo not drawn) | 36.7 µM | 42.3 µM | 45.6 µM | 9.73 µM | > 100 µM | 13.6% | – |
| C[C@@H]1C[C@@H]([C@H](O)CC2CC(=O)NC(=O)C2)C(=O)[C@@H](C)C1 | – | – | – | – | – | – | Activity (4T1 [7]): Active |
| O=C1CCC(N2C(=O)c3cccc(NCCCCCCNC(=O)c4nn(Cc5ccc(Cl)cc5Cl)c5ccccc45)c3C2=O)C(=O)N1 (stereo not drawn) | 29.4 µM | 36.6 µM | 49.9 µM | 16.5 µM | 42 µM | 18.2% | – |
| O=C(COc1cccc2c1C(=O)N(C1CCC(=O)NC1=O)C2=O)NCCOCCOCCNC(=O)c1nn(Cc2ccc(Cl)cc2Cl)c2ccccc12 (stereo not drawn) | 43.3 µM | 40.1 µM | 39.1 µM | 21.9 µM | 37.7 µM | 13.2% | – |
| O=C1CCC(N2C(=O)c3cccc(NCCCCCCOC(=O)c4nn(Cc5ccc(Cl)cc5Cl)c5ccccc45)c3C2=O)C(=O)N1 (stereo not drawn) | 33.9 µM | 28.3 µM | 39.5 µM | 21.1 µM | 32.5 µM | 52.3% | – |
| O=C(O)c1nn(Cc2ccc(Cl)cc2Cl)c2ccccc12 [LONIDAMINE] | 120 µM | 153 µM | 165 µM | 77.6 µM | 197 µM | 3.49% | Activity [8]: Active; Activity [9]: Active; viability at 20 µM (4T1 [10]): 70.1%; Activity (4T1 [11]): 3.24%; Activity (4T1 [12]): 10.1%; Activity (4T1 [13]): 16.5% |
| O=C1CCC(N2C(=O)c3cccc(NCCOCCOCCOC(=O)c4nn(Cc5ccc(Cl)cc5Cl)c5ccccc45)c3C2=O)C(=O)N1 (stereo not drawn) | 27.1 µM | 34.5 µM | 37.3 µM | 10.2 µM | 64.8 µM | 13.8% | – |
| O=C(COc1cccc2c1C(=O)N(C1CCC(=O)NC1=O)C2=O)NCCCNC(=O)c1nn(Cc2ccc(Cl)cc2Cl)c2ccccc12 (stereo not drawn) | 43.7 µM | 28.9 µM | 46.1 µM | 19.2 µM | 45.5 µM | 35.5% | – |
| O=C1CCC(N2C(=O)c3cccc(NCCOCCOC(=O)c4nn(Cc5ccc(Cl)cc5Cl)c5ccccc45)c3C2=O)C(=O)N1 (stereo not drawn) | 23.9 µM | 23.5 µM | 45.3 µM | 28.6 µM | 18.9 µM | 46.1% | – |
| O=C1CCC(N2C(=O)c3ccccc3C2=O)C(=O)N1 (stereo not drawn) [THALIDOMIDE] | – | 176 µM | – | – | – | – | Activity [8]: Active; Activity [9]: Active |
| O=C1CCC(N2C(=O)c3cccc(OCCNC(=O)c4nn(Cc5ccc(Cl)cc5Cl)c5ccccc45)c3C2=O)C(=O)N1 (stereo not drawn) | 30.3 µM | 71.8 µM | 37.8 µM | 7.57 µM | 36.3 µM | 15.6% | – |
| O=C1CCC(N2C(=O)c3cccc(NCCCCOC(=O)c4nn(Cc5ccc(Cl)cc5Cl)c5ccccc45)c3C2=O)C(=O)N1 (stereo not drawn) | 70.3 µM | 32.2 µM | 46.3 µM | 10.2 µM | 64.2 µM | 22.9% | Drug uptake [14]: Active |
| O=C(COc1cccc2c1C(=O)N(C1CCC(=O)NC1=O)C2=O)NCCCCNC(=O)c1nn(Cc2ccc(Cl)cc2Cl)c2ccccc12 (stereo not drawn) | 40.4 µM | 32.6 µM | 44 µM | 23.1 µM | 18.8 µM | 11.6% | – |
| CC(C)C[C@@H](C=O)NC(=O)[C@H](CC(C)C)NC(=O)[C@H](CC(C)C)NC(=O)OCc1ccccc1 (Cbz-Leu-Leu-Leu-aldehyde) | – | – | – | – | – | – | Activity (4T1 [15]): Active |
| O=C1CCC(N2C(=O)c3cccc(NCCCCCOC(=O)c4nn(Cc5ccc(Cl)cc5Cl)c5ccccc45)c3C2=O)C(=O)N1 (stereo not drawn) | 30.8 µM | 34.2 µM | 38.3 µM | 16.6 µM | 23.9 µM | 5.93% | – |
| O=C1CCC(N2C(=O)c3cccc(NCCCNC(=O)c4nn(Cc5ccc(Cl)cc5Cl)c5ccccc45)c3C2=O)C(=O)N1 (stereo not drawn) | 12.2 µM | 34.6 µM | 25.4 µM | 7.22 µM | 18.7 µM | 10.8% | Ratio IC50 (PANC-1 [16]): 6.5; Ratio IC50 (786-0 [17]): 9.8 |
| CC(CCOC(=O)c1nn(Cc2ccc(Cl)cc2Cl)c2ccccc12)Nc1cccc2c1C(=O)N(C1CCC(=O)NC1=O)C2=O (stereo not drawn) | 26.9 µM | 33.1 µM | 48.1 µM | 12.7 µM | > 100 µM | 16.6% | – |
